# Columns and labels:
# [1] = molecular target: T1, Gamma-aminobutyric acid receptor subunit alpha-1 (Homo sapiens, UniProt P14867)
# T1 sequence (P14867 whole entry): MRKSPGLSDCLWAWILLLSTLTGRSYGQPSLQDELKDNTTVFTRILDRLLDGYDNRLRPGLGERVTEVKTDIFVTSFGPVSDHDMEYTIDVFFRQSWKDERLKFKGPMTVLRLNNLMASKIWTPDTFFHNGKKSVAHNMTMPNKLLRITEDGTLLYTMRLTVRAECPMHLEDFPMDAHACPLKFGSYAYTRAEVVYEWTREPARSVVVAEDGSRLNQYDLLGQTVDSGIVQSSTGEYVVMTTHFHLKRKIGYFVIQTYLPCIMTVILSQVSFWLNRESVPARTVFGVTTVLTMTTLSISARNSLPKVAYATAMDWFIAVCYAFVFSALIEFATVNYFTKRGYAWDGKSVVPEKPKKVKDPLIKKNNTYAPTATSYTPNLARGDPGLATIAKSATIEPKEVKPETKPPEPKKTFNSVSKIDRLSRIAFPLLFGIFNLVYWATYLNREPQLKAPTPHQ
# [2] = molecular target: T2, Gamma-aminobutyric acid receptor subunit alpha-5 (Homo sapiens, UniProt P31644)
# T2 sequence (P31644 whole entry): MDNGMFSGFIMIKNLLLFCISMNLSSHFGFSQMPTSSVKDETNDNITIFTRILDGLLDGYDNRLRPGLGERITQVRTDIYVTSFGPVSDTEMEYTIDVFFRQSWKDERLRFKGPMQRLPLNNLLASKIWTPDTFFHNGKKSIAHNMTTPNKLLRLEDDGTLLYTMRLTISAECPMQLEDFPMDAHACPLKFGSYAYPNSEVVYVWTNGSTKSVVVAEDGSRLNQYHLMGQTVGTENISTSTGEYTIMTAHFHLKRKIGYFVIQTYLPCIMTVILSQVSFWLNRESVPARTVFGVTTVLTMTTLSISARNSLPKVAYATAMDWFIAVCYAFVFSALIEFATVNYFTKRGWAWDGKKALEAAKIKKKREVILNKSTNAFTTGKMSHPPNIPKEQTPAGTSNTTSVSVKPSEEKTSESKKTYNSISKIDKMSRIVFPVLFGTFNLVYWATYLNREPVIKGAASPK
# [3] = molecular target: T3, Gamma-aminobutyric acid receptor subunit alpha-2 (Homo sapiens, UniProt P47869)
# T3 sequence (P47869 whole entry): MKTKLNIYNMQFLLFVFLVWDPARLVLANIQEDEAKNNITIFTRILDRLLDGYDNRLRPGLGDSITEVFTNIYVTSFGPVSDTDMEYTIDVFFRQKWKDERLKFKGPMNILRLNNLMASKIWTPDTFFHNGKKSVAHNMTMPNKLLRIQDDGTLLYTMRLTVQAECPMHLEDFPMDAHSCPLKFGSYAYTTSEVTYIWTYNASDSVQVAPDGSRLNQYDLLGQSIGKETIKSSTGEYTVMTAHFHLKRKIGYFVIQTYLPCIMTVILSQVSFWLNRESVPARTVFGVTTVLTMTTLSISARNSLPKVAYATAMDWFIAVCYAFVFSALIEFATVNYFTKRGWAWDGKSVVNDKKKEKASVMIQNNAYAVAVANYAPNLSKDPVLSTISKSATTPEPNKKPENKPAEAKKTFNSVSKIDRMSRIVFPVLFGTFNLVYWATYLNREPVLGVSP
# [4] = molecular target: T4, Gamma-aminobutyric acid receptor subunit alpha-3 (Homo sapiens, UniProt P34903)
# T4 sequence (P34903 whole entry): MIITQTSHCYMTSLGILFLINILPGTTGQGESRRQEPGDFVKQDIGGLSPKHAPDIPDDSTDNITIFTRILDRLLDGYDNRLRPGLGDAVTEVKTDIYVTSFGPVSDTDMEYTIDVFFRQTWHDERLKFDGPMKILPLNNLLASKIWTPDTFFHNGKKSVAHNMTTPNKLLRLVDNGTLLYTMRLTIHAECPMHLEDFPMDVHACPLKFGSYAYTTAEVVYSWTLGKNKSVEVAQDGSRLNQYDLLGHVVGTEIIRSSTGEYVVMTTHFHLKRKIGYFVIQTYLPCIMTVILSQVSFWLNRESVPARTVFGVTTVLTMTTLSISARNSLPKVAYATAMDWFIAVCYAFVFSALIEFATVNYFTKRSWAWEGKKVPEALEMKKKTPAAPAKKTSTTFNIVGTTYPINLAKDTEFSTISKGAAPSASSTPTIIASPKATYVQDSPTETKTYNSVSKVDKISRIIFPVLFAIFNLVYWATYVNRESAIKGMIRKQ
smiles,measurement,setting,value
Cc1nnc2ccc(-c3cccc(C(F)(F)F)c3)nn12,Ki,[1],290 nM
same,Ki,[2],1150 nM
same,Ki,[3],2900 nM
same,Ki,[4],3140 nM
Cc1ccc(-c2nc3ccc(C)cn3c2CC(=O)N(C)C)cc1 [Ambien],Ki,[2],> 10000 nM
COC(=O)c1cc2c(cn1)[nH]c1ccccc12,Ki,[1],2.2 nM
same,Ki,[2],76.4 nM
same,Ki,[3],6.5 nM
same,Ki,[4],9.2 nM
CC(C)c1nc(-c2ncn3c2CN(C)C(=O)c2c(Cl)cccc2-3)no1 [FG 8205],Ki,[1],2.3 nM
same,Ki,[2],6.4 nM
same,Ki,[3],3.7 nM
same,Ki,[4],6.4 nM
"CC(C)(C)OC(=O)c1ncn2c1C1CCCN1C(=O)c1c(Br)cccc1-2 (stereo not given) [8-Bromo-7-oxo-3b,4,5,6-tetrahydro-7H-2,6a,11b-triaza-benzo[g]cyclopenta[e]azulene-3-carboxylic acid tert-butyl ester]",Ki,[1],1.2 nM
same,Ki,[2],2.4 nM
same,Ki,[3],1.2 nM
same,Ki,[4],1.3 nM
CCOC(=O)c1ncn2c1CN(C)C(=O)c1cc(N=[N+]=[N-])ccc1-2 [RO-154513],Ki,[1],10 nM
same,Ki,[2],0.7 nM
same,Ki,[3],10.4 nM
same,Ki,[4],7.8 nM
Cc1nnc2n1-c1ccc(Cl)cc1C(c1ccccc1Cl)=NC2 [Halcion],Ki,[4],3 nM
COCc1c(C(=O)OC(C)C)ncc2[nH]c3ccc(OCc4ccccc4)cc3c12,Ki,[2],8.4 nM
same,Ki,[3],4.4 nM
same,Ki,[4],7.1 nM

# Source: BindingDB's records for PubMed 8391122 (Merck Sharp & Dohme Research Laboratories, 1993)
